Test results taken from patent US20020004679A1, “Topoisomerase inhibitors for prevention of restenosis” (Quanam Medical Corporation, priority 1998, published 2002).

Test system: coronary arteries of pigs
Assay: Drug-loaded polymer stent implanted in pig coronary arteries for one month; morphometric analysis of late loss and percent stenosis
Assay type: in vivo, pig (Domestic Farm Swine)
Conditions: overall conclusion from the pig coronary artery stent studies
Experimental: Boundaries of a selected coronary artery segment were detected automatically from optically magnified and video-digitized regions of interest. The catheter used for insertion of the stents was used as a scaling device to determine the dimensions of the artery at the site of implantation. The original vessel diameter at the time of implantation was determined.
The catheter used for insertion of the stents was used as a scaling device to determine the dimensions of the artery at the site of implantation. The original vessel diameter at the time of implantation was determined.

For `CC[C@@]1(O)C(=O)OCc2c1cc1n(c2=O)Cc2cc3ccccc3nc2-1` [camptothecin, Camptothecin], the “inhibition of undesirable cell growth associated with vessel injury during coronary angioplasty and stent insertion” value was “effective to inhibit the undesirable cell growth”.
